What was measured:
Assay in all cases: Histone peptide microarray
Type in all cases: binding, human
Settings in all cases: total n = 4
KDM5B (3) = tested on: KDM5B (3)
Outline: (§1)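 A peptide microarray holding 293 synthetic histone peptides with individual or combinatorial modifications was probed with each GST-PHD protein at 0.5 μM. Values represent mean intensity (±SD) from four replicates.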

ING3 = tested on: ING3
Outline: as §1

BPTF (PB) = tested on: BPTF (PB)
Outline: as §1

PHRF1 (RP) = tested on: PHRF1 (RP)
Outline: as §1

TRIM66 (PB) = tested on: TRIM66 (PB)
Outline: as §1

SP140L = tested on: SP140L
Outline: as §1

PHF2 = tested on: PHF2
Outline: as §1

KDM5A (1) = tested on: KDM5A (1)
Outline: as §1

PHF8 = tested on: PHF8
Outline: as §1

PHF13 = tested on: PHF13
Outline: as §1

CHD5 (PCC) = tested on: CHD5 (PCC)
Outline: as §1

AIRE (PP) = tested on: AIRE (PP)
Outline: as §1

DIDO1 = tested on: DIDO1
Outline: as §1

CHD4 (PPCC) = tested on: CHD4 (PPCC)
Outline: as §1

ING4 = tested on: ING4
Outline: as §1

RAG2 = tested on: RAG2
Outline: as §1

PHF23 = tested on: PHF23
Outline: as §1

BAZ2B = tested on: BAZ2B
Outline: as §1

ING1 = tested on: ING1
Outline: as §1

KDM7A = tested on: KDM7A
Outline: as §1

DPF2 (PPC2W2) = tested on: DPF2 (PPC2W2)
Outline: as §1

ING2 = tested on: ING2
Outline: as §1

PHF21A = tested on: PHF21A
Outline: as §1

KDM4C (TTP) = tested on: KDM4C (TTP)
Outline: as §1

ING5 = tested on: ING5
Outline: as §1

KDM5B (1) = tested on: KDM5B (1)
Outline: as §1

CHD5 (PPCC) = tested on: CHD5 (PPCC)
Outline: as §1

MLL5 = tested on: MLL5
Outline: as §1

MORC3 (CW) = tested on: MORC3 (CW)
Outline: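 GST-tagged PHD finger readers were expressed, purified and applied at 0.5 μM to a microarray of 293 synthetic histone peptides carrying single or combinatorial PTMs, using an optimized protocol. Binding signals are averages with standard deviation from 4 replicates.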

KDM5A (3) = tested on: KDM5A (3)
Outline: as §1

TAF3 = tested on: TAF3
Outline: as §1

[1] = sheet "Array Heatmap", GST-tagged reader, histone peptide array

**Q.** What does the source list for H3K4me3 + K9me3: H3 1-20?
**A.** Array Heatmap signal, KDM5B (3) (KDM5B (3); [1]): 0.5506; Array Heatmap signal, ING3 (ING3; [1]): 0.5385; Array Heatmap signal, BPTF (PB) (BPTF (PB); [1]): 0.3806; Array Heatmap signal, PHRF1 (RP) (PHRF1 (RP); [1]): 0.5034; Array Heatmap signal, TRIM66 (PB) (TRIM66 (PB); [1]): 0.5701; Array Heatmap signal, SP140L (SP140L; [1]): 0.3795; Array Heatmap signal, PHF2 (PHF2; [1]): 0.6501; Array Heatmap signal, KDM5A (1) (KDM5A (1); [1]): 0.4868; Array Heatmap signal, PHF8 (PHF8; [1]): 0.4712; Array Heatmap signal, PHF13 (PHF13; [1]): 0.6561; Array Heatmap signal, CHD5 (PCC) (CHD5 (PCC); [1]): 0.7845; Array Heatmap signal, AIRE (PP) (AIRE (PP); [1]): 0.4775; Array Heatmap signal, DIDO1 (DIDO1; [1]): 0.7556; Array Heatmap signal, CHD4 (PPCC) (CHD4 (PPCC); [1]): 0.5681; Array Heatmap signal, ING4 (ING4; [1]): 0.4847; Array Heatmap signal, RAG2 (RAG2; [1]): 0.359; Array Heatmap signal, PHF23 (PHF23; [1]): 0.5934; Array Heatmap signal, BAZ2B (BAZ2B; [1]): 0.4905; Array Heatmap signal, ING1 (ING1; [1]): 0.6677; Array Heatmap signal, KDM7A (KDM7A; [1]): 0.4063; Array Heatmap signal, DPF2 (PPC2W2) (DPF2 (PPC2W2); [1]): 0.7108; Array Heatmap signal, ING2 (ING2; [1]): 0.7112; Array Heatmap signal, PHF21A (PHF21A; [1]): 0.4927; Array Heatmap signal, KDM4C (TTP) (KDM4C (TTP); [1]): 0.5629; Array Heatmap signal, ING5 (ING5; [1]): 0.4091; Array Heatmap signal, KDM5B (1) (KDM5B (1); [1]): 0.6368; Array Heatmap signal, CHD5 (PPCC) (CHD5 (PPCC); [1]): 0.5893; Array Heatmap signal, MLL5 (MLL5; [1]): 0.6708; Array Heatmap signal, MORC3 (CW) (MORC3 (CW); [1]): 0.5189; Array Heatmap signal, KDM5A (3) (KDM5A (3); [1]): 0.6222; Array Heatmap signal, TAF3 (TAF3; [1]): 0.3501

**Q.** With H3K4me3 + K14ac + K18ac: H3 1-20 as the substance, how does the “Array Heatmap signal (histone peptide microarray)” value (KDM5B (3); GST-tagged KDM5B (3), sheet Array Heatmap, each array performed twice) read?
**A.** The value was 0.9729.

**Q.** And the “Array Heatmap signal (histone peptide microarray)” value (ING3; GST-tagged ING3, sheet Array Heatmap, each array performed twice)?
**A.** Its value is 1.

**Q.** And the “Array Heatmap signal (histone peptide microarray)” value (BPTF (PB); GST-tagged BPTF (PB = PHD + Bromodomain), sheet Array Heatmap, each array performed twice)?
**A.** Its value is 1.

**Q.** What about the “Array Heatmap signal (histone peptide microarray)” value (PHRF1 (RP); GST-tagged PHRF1 (RP), sheet Array Heatmap, each array performed twice) of the same substance?
**A.** Its value is 0.6285.

**Q.** What about the “Array Heatmap signal (histone peptide microarray)” value (TRIM66 (PB); GST-tagged TRIM66 (PB = PHD + Bromodomain), sheet Array Heatmap, each array performed twice) of the same substance?
**A.** The value was 0.7091.

**Q.** And the “Array Heatmap signal (histone peptide microarray)” value (SP140L; GST-tagged SP140L, sheet Array Heatmap, each array performed twice)?
**A.** The value was 0.3709.

**Q.** What about the “Array Heatmap signal (histone peptide microarray)” value (PHF2; GST-tagged PHF2, sheet Array Heatmap, each array performed twice) of the same substance?
**A.** The value was 0.829.

**Q.** And the “Array Heatmap signal (histone peptide microarray)” value (KDM5A (1); GST-tagged KDM5A (1), sheet Array Heatmap, each array performed twice)?
**A.** Its value is 0.5146.

**Q.** What about the “Array Heatmap signal (histone peptide microarray)” value (PHF8; GST-tagged PHF8, sheet Array Heatmap, each array performed twice) of the same substance?
**A.** The value was 0.9943.

**Q.** What about the “Array Heatmap signal (histone peptide microarray)” value (PHF13; GST-tagged PHF13, sheet Array Heatmap, each array performed twice) of the same substance?
**A.** Its value is 0.9146.

**Q.** And the “Array Heatmap signal (histone peptide microarray)” value (CHD5 (PCC); GST-tagged CHD5 (PCC = PHD + Dual Chromodomain), sheet Array Heatmap, each array performed twice)?
**A.** Its value is 0.8498.

**Q.** What about the “Array Heatmap signal (histone peptide microarray)” value (AIRE (PP); GST-tagged AIRE (PP), sheet Array Heatmap, each array performed twice) of the same substance?
**A.** Its value is 0.5611.

**Q.** What about the “Array Heatmap signal (histone peptide microarray)” value (DIDO1; GST-tagged DIDO1, sheet Array Heatmap, each array performed twice) of the same substance?
**A.** The value was 0.9566.

**Q.** And the “Array Heatmap signal (histone peptide microarray)” value (CHD4 (PPCC); GST-tagged CHD4 (PPCC = Dual PHD + Dual Chromodomain), sheet Array Heatmap, each array performed twice)?
**A.** The value was 0.5986.

**Q.** What about the “Array Heatmap signal (histone peptide microarray)” value (ING4; GST-tagged ING4, sheet Array Heatmap, each array performed twice) of the same substance?
**A.** The value was 0.8448.

**Q.** What about the “Array Heatmap signal (histone peptide microarray)” value (RAG2; GST-tagged RAG2, sheet Array Heatmap, each array performed twice) of the same substance?
**A.** Its value is 1.

**Q.** And the “Array Heatmap signal (histone peptide microarray)” value (PHF23; GST-tagged PHF23, sheet Array Heatmap, each array performed twice)?
**A.** Its value is 0.9183.

**Q.** What about the “Array Heatmap signal (histone peptide microarray)” value (BAZ2B; GST-tagged BAZ2B, sheet Array Heatmap, each array performed twice) of the same substance?
**A.** Its value is 0.6645.

**Q.** What about the “Array Heatmap signal (histone peptide microarray)” value (ING1; GST-tagged ING1, sheet Array Heatmap, each array performed twice) of the same substance?
**A.** The value was 0.9274.

**Q.** And the “Array Heatmap signal (histone peptide microarray)” value (KDM7A; GST-tagged KDM7A, sheet Array Heatmap, each array performed twice)?
**A.** Its value is 0.7919.

**Q.** And the “Array Heatmap signal (histone peptide microarray)” value (DPF2 (PPC2W2); GST-tagged DPF2 (PPC2W2 = Dual PHD + C2W2-type Zn-finger), sheet Array Heatmap, each array performed twice)?
**A.** The value was 0.7705.

**Q.** And the “Array Heatmap signal (histone peptide microarray)” value (ING2; GST-tagged ING2, sheet Array Heatmap, each array performed twice)?
**A.** The value was 0.908.

**Q.** And the “Array Heatmap signal (histone peptide microarray)” value (PHF21A; GST-tagged PHF21A, sheet Array Heatmap, each array performed twice)?
**A.** The value was 0.4924.

**Q.** And the “Array Heatmap signal (histone peptide microarray)” value (KDM4C (TTP); GST-tagged KDM4C (TTP = Tandem Tudor domain + PHD), sheet Array Heatmap, each array performed twice)?
**A.** Its value is 0.868.

**Q.** What about the “Array Heatmap signal (histone peptide microarray)” value (ING5; GST-tagged ING5, sheet Array Heatmap, each array performed twice) of the same substance?
**A.** The value was 0.6681.

**Q.** What about the “Array Heatmap signal (histone peptide microarray)” value (KDM5B (1); GST-tagged KDM5B (1), sheet Array Heatmap, each array performed twice) of the same substance?
**A.** Its value is 0.8317.

**Q.** What about the “Array Heatmap signal (histone peptide microarray)” value (CHD5 (PPCC); GST-tagged CHD5 (PPCC = Dual PHD + Dual Chromodomain), sheet Array Heatmap, each array performed twice) of the same substance?
**A.** Its value is 0.6153.

**Q.** And the “Array Heatmap signal (histone peptide microarray)” value (MLL5; GST-tagged MLL5, sheet Array Heatmap, each array performed twice)?
**A.** Its value is 0.9197.

**Q.** What about the “Array Heatmap signal (histone peptide microarray)” value (MORC3 (CW); GST-tagged MORC3 (CW = CW-type Zn-finger), sheet Array Heatmap, each array performed twice) of the same substance?
**A.** Its value is 0.9877.

**Q.** And the “Array Heatmap signal (histone peptide microarray)” value (KDM5A (3); GST-tagged KDM5A (3), sheet Array Heatmap, each array performed twice)?
**A.** The value was 0.9424.

**Q.** And the “Array Heatmap signal (histone peptide microarray)” value (TAF3; GST-tagged TAF3, sheet Array Heatmap, each array performed twice)?
**A.** Its value is 1.
